Test system: P388/0 tumor cells
Test: Lymphocytic Leukemia P388/0 Test
Type: in vivo, CD2-F₁ mice
Conditions: for LD₂₀: CD2-F₁ mice, intraperitoneally on days 1, 5 and 9; for 30 DAY Survivors: at the optimal dose, survivors out of 6 animals per dose level group; for T/C x 100% (Excluding 30 Day Survivors): ratio of median survival time treated/control at the optimal dose, i.p. days 1, 5, 9, criterion for activity T/C x 100 ≧120%
Source text: Methods for evaluating the antitumor activity of these compounds are essentially those used in the Tumor Panel by the Development Therapeutics Program, Division of Cancer Treatment, National Cancer Institute, A. Goldin, et al., Methods in Cancer Research, Vol. XVI, p. 165, Academic Press (1979). Some modifications, in dose level and schedule have been made to increase the testing efficiency.
CD2-F₁ mice, of the same sex weighing within 20±3g, are used for this test. Control and test animals are injected intraperitoneally with a suspension of 10⁶ viable P388/0 tumor cells on day 0. In each test several dose levels which bracket the LD₂₀ for the compound are evaluated; each dose level group contains 6 animals. The test compounds are prepared either in physiologic saline containing 0.05% Tween 80 or distilled water containing 5% dextrose and are administered intraperitoneally on days, 1, 5, and 9 relative to tumor implant. Doses are on a mg/kg basis according to individual animals' body weights. the day of death for each animal is recorded, the median identified for each group and the ratios of median survival time for treated (T)/control (C) groups are calculated. The criterion for activity is T/C x 100 ≧120%.

Compound	LD₂₀ [mg/kg]	30 DAY Survivors	T/C x 100% (Excluding 30 Day Survivors)
2-Methyl-2-[[(7-methyl-7-H-benzo[c]carbazol-10-yl) methyl]amino-1,3-propanediol hydrochloride 3/10 hydrate [Example 4C]	55	6/6	no deaths
CC(CO)(CO)NCc1cc2oc3ccccc3c2c2ccccc12 [Example 3B, 2-((Benzo[b]naphtho[1,2-d]furan-5-ylmethyl)amino)-2-methyl-1,3-propanediol methanesulfonate]	10	2/6	+230%
CC(CO)(CO)NCc1cccc2cc3c(cc12)oc1ccccc13 [Example 6B, 2-[(Benzo[b]naphthol[2,3-d]furan-7-ylmethyl)amino]-2-methyl-1,3-propanediol methanesulphonate 1/4 hydrate]	35	0/6	+210%
CC(CO)(CO)NCc1c2ccccc2cc2c1oc1ccccc12 [Example 2B, 2-((Benzo[b]naphtho[2,3-d]furan-6-ylmethyl)amino]2-methyl-1,3-propanediol methanesulfonate]	125	1/6	+204%
CC(CO)(CO)NCc1cc2c3ccccc3sc2c2ccccc12 [Example 1, 2-((Benzo[b]naphtho [2,1-d]thiophen-5-ylmethyl)amino)-2-methyl-1,3-propanediol methanesulfonate]	35	1/6	+210%
CC(CO)(CO)NCc1cc2c3ccccc3oc2c2ccccc12 [Example 5B]	100	4/6	+255%

Reference: patent publication EP0182608B1, “Polycyclic compounds, their preparation and formulations containing them” (priority 1984, dated 1986)
